# According to patent US9394260B2, “Pyrimidinone carboxamide inhibitors of endothelial lipase” (BRISTOL-MYERS SQUIBB COMPANY, priority 2012, dated 2016):
# Target: T1, endothelial lipase (EL) (Homo sapiens, UniProt Q9Y5X9)
# T1 construct: transformed by RAGE technology (Athersys) to overexpress endogenous EL; endogenous in cells; conditioned medium used as the enzyme source
# T1 sequence (Q9Y5X9 21-500): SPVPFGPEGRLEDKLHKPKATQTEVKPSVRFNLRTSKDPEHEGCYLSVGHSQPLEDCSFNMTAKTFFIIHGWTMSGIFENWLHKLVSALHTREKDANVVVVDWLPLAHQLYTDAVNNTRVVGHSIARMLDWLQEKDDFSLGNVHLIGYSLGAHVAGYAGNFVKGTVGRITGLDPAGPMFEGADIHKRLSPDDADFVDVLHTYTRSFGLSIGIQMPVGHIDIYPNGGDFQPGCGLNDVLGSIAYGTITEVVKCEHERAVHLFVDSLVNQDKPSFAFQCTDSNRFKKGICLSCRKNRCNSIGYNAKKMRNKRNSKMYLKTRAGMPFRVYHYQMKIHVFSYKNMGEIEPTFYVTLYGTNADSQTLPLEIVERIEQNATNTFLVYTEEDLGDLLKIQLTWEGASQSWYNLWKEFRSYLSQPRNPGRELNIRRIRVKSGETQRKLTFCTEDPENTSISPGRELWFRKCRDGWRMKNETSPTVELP
# Assay: Endothelial lipase (EL) enzymatic assay with fluorescent substrate A10070 in DMPG vesicles
# Type: biochemical
# Details: conditioned media from HT-1080 cells overexpressing endogenous EL, 20 min preincubation at 37° C.
# Method: Endothelial lipase activity was measured using a fluorescent substrate, A10070, (Invitrogen, CA) doped into an artificial vesicle containing DMPG (Avanti Polar Lipids) as the excipient. Vesicles were prepared by combining 285 μL of 1 mM DMPG in a 1:1 mixture of MeOH and CHCl3 with 15 μL of 1 mM A10070 in a 1:1 mixture of MeOH and CHCl3. The mixture was dried under nitrogen and resuspended in 150 μL of 50 mM HEPES pH 8.0 buffer containing 100 mM NaCl and 0.2 mM EDTA. The sample was allowed to sit at rt for 15 min and then was sonicated 3×4 mins on ice with a Branson Sonicator using duty cycle 1. This preparation provides vesicles with a mole fraction of 0.05 for the FRET substrate.
# The enzymatic assay was measured using white, opaque 96-well half area plates. Each well contained 60 μL of assay buffer (50 mM HEPES pH 8.0, 50 mM NaCl and 1 mM CaCl2) and 2 ul of a DMSO solution containing compound of interest. Conditioned media obtained from HT-1080 cells, which were transformed by RAGE technology (Athersys) to overexpress endogenous EL, was added and the reaction was allowed to incubate for 20 min at 37° C. with gentle agitation. The reaction was started by the addition of 20 μL of a 1:4 dilution of vesicles. The final total reaction volume was 100 μL. The reaction rates were measured on a Gemini plate reader with an excitation wavelength of 488 nm and a emission of 530 nm. Readings were taken every 20 seconds for 10 min with agitation between each reading. The slope of the linear portion of the readout was used to calculate the rate of the reaction.
# The exemplified examples disclosed in the present invention were tested in the EL assay described above and found having EL inhibitory activity. A range of EL IC50 values of ≦10 μM (10000 nM) was observed.
row,SMILES,IC50
1,"COc1ccc(CNc2c(C(=O)N[C@H](C)CCc3ccc(Cl)c(Cl)c3)[nH]c(=O)n(C)c2=O)cc1 [Example 171, (R)—N-(4-(3,4-Dichlorophenyl)butan-2-yl)-5-(4-methoxybenzylamino)-1-methyl-2,6-dioxo-1,2,3,6-tetrahydropyrimidine-4-carboxamide]",358 nM
2,"C[C@@H](NC(=O)c1[nH]c(=O)[nH]c(=O)c1O)c1cccc(-c2cnn(Cc3ccccc3)c2)c1 [Example 181, (R)-N-(1-(3-(1-benzyl-1H-pyrazol-4-yl)phenyl)ethyl)-5-hydroxy-2,6-dioxo-1,2,3,6-tetra-hydropyrimidine-4-carboxamide]",10 nM
3,"C[C@@H](NC(=O)c1[nH]c(=O)[nH]c(=O)c1N)c1ccc2ccccc2c1 [Example 14, (R)-5-amino-N-(1-(naphthalen-2-yl)ethyl)-2,6-dioxo-1,2,3,6-tetrahydropyrimidine-4-carboxamide]",7510 nM
4,"Nc1c(C(=O)NCC2Cc3ccccc3C(c3ccccc3)C2)[nH]c(=O)[nH]c1=O (centres unmarked) [Example 46, 5-amino-2,6-dioxo-N-((4-phenyl-1,2,3,4-tetrahydronaphthalen-2-yl)methyl)-1,2,3,6-tetrahydropyrimidine-4-carboxamide]",207 nM
5,"C[C@H](COc1ccc2c(c1)NC(=O)CC2)NC(=O)c1[nH]c(=O)[nH]c(=O)c1N [Example 120, (R)-5-amino-2,6-dioxo-N-(1-(2-oxo-1,2,3,4-tetrahydroquinolin-7-yloxy)propan-2-yl)-1,2,3,6-tetrahydropyrimidine-4-carboxamide]",5400 nM
6,"C[C@@H](NC(=O)c1[nH]c(=O)[nH]c(=O)c1N)c1cccc(-c2cnn(CCc3c[nH]c4ccccc34)c2)c1 [Example 155, (R)-N-(1-(3-(1-(2-(1H-indol-3-yl)ethyl)-1H-pyrazol-4-yl)phenyl)ethyl)-5-amino-2,6-dioxo-1,2,3,6-tetrahydro-pyrimidine-4-carboxamide]",422 nM
7,"Cc1nc2cc(OC[C@@H](C)NC(=O)c3[nH]c(=O)[nH]c(=O)c3N)ccc2s1 [Example 84, (R)-5-amino-N-(1-(2-methyl-benzo[d]thiazol-5-yloxy)propan-2-yl)-2,6-dioxo-1,2,3,6-tetrahydropyrimidine-4-carboxamide]",2000 nM
8,"COc1cc(C)c(OC)c2c1CC(CNC(=O)c1[nH]c(=O)[nH]c(=O)c1N)CC2 (centres unmarked) [Example 45, 5-amino-N-((5,8-dimethoxy-6-methyl-1,2,3,4-tetra-hydronaphthalen-2-yl)methyl)-2,6-dioxo-1,2,3,6-tetrahydropyrimidine-4-carboxamide]",78 nM
9,"C[C@@H](NC(=O)c1[nH]c(=O)[nH]c(=O)c1N)c1cccc(-c2cnn(Cc3cccc(C(N)=O)c3)c2)c1 [Example 141, (R)-5-amino-N-(1-(3-(1-(3-carbamoylbenzyl)-1H-pyrazol-4-yl)phenyl)ethyl)-2,6-dioxo-1,2,3,6-tetrahydro-pyrimidine-4-carboxamide]",883 nM
10,"C[C@@H](NC(=O)c1[nH]c(=O)[nH]c(=O)c1N)c1cccc(-c2cnn(CC3CCN(C(=O)OCc4ccccc4)CC3)c2)c1 [Example 161, (R)-benzyl 4-((4-(3-(1-(5-amino-2,6-dioxo-1,2,3,6-tetra-hydropyrimidine-4-carboxamido)ethyl)phenyl)-1H-pyrazol-1-yl)methyl) piperidine-1-carboxylate]",441 nM
11,"Nc1c(C(=O)NCc2c[nH]nc2-c2ccccc2)[nH]c(=O)[nH]c1=O [Example 30, 5-amino-2,6-dioxo-N-((3-phenyl-1H-pyrazol-4-yl)methyl)-1,2,3,6-tetrahydropyrimidine-4-carboxamide]",612 nM
12,"Nc1c(C(=O)NC[C@H]2C[C@@H]2c2ccc(F)cc2)[nH]c(=O)[nH]c1=O [Example 29, 5-amino-N-(((1S,2S)-2-(4-fluorophenyl)cyclopropyl)methyl)-2,6-dioxo-1,2,3,6-tetrahydropyrimidine-4-carboxamide]",7400 nM
13,"C[C@H](COc1ccc(Cl)c2c1CCC2)NC(=O)c1[nH]c(=O)[nH]c(=O)c1N [Example 65, (R)-5-amino-N-(1-(7-chloro-2,3-dihydro-1H-inden-4-yloxy)propan-2-yl)-2,6-dioxo-1,2,3,6-tetrahydropyrimidine-4-carboxamide]",223 nM
14,"CCCOc1cc(F)ccc1CNC(=O)c1c(O)c(=O)n(C)c(=O)n1CCC [Example 176, N-(4-fluoro-2-propoxybenzyl)-5-hydroxy-1-methyl-2,6-dioxo-3-propyl-1,2,3,6-tetra-hydropyrimidine-4-carboxamide]",4640 nM
15,"Nc1c(C(=O)NCC2CCc3nn(Cc4ccccc4)cc3C2)[nH]c(=O)[nH]c1=O (centres unmarked) [Example 50, 5-amino-N-((2-benzyl-4,5,6,7-tetrahydro-2H-indazol-5-yl)methyl)-2,6-dioxo-1,2,3,6-tetrahydropyrimidine-4-carboxamide]",2480 nM
16,"C[C@H](COc1ccc(Cl)cc1C(=O)c1ccccc1)NC(=O)c1[nH]c(=O)[nH]c(=O)c1N [Example 88, (R)-5-amino-N-(1-(2-benzoyl-4-chlorophenoxy)propan-2-yl)-2,6-dioxo-1,2,3,6-tetrahydropyrimidine-4-carboxamide]",509 nM
17,"C[C@H](COc1ccccc1-c1nnco1)NC(=O)c1[nH]c(=O)[nH]c(=O)c1N [Example 115, (R)-N-(1-(2-(1,3,4-oxadiazol-2-yl)phenoxy)propan-2-yl)-5-amino-2,6-dioxo-1,2,3,6-tetra-hydropyrimidine-4-carboxamide]",4990 nM
18,"Nc1c(C(=O)NCc2cccc(-n3cnc4ccccc43)c2)[nH]c(=O)[nH]c1=O [Example 28, N-(3-(1H-benzo[d]imidazol-1-yl)benzyl)-5-amino-2,6-dioxo-1,2,3,6-tetrahydropyrimidine-4-carboxamide]",2200 nM
19,"C[C@@H](NC(=O)c1[nH]c(=O)[nH]c(=O)c1N)c1cc(-c2cnn(Cc3ccccc3)c2)ccc1O [Example 143, (R)-5-amino-N-(1-(5-(1-benzyl-1H-pyrazol-4-yl)-2-hydroxyphenyl)ethyl)-2,6-dioxo-1,2,3,6-tetrahydro-pyrimidine-4-carboxamide]",6960 nM
20,"CC(C)(C)OC(=O)N1CCN(c2cccc(CNC(=O)c3[nH]c(=O)[nH]c(=O)c3N)c2)CC1 [Example 33, tert-butyl 4-(3-((5-amino-2,6-dioxo-1,2,3,6-tetrahydro-pyrimidine-4-carboxamido)methyl)phenyl)piperazine-1-carboxylate]",266 nM
21,"C[C@@H](NC(=O)c1[nH]c(=O)[nH]c(=O)c1N)c1cccc(-c2ccn(Cc3ccccc3)n2)c1 [Example 136, (R)-5-amino-N-(1-(3-(1-benzyl-1H-pyrazol-3-yl)phenyl)ethyl)-2,6-dioxo-1,2,3,6-tetrahydro-pyrimidine-4-carboxamide]",20 nM
22,"C[C@H](COc1ccc(Cl)cc1F)NC(=O)c1[nH]c(=O)[nH]c(=O)c1N [Example 72, (R)-5-amino-N-(1-(4-chloro-2-fluoro-phenoxy)propan-2-yl)-2,6-dioxo-1,2,3,6-tetrahydropyrimidine-4-carboxamide]",1390 nM
23,"Nc1c(C(=O)NCC2CCN(S(=O)(=O)c3ccc(Cl)c(Cl)c3)CC2)[nH]c(=O)[nH]c1=O [Example 37, 5-amino-N-((1-(3,4-dichloro-phenylsulfonyl)piperidin-4-yl)methyl)-2,6-dioxo-1,2,3,6-tetrahydropyrimidine-4-carboxamide]",3170 nM
24,"C[C@H](CCc1cccc(C(F)(F)F)c1)NC(=O)c1[nH]c(=O)[nH]c(=O)c1N [Example 1, (R)-5-Amino-2,6-dioxo-N-(4-(3-(trifluoromethyl)phenyl)butan-2-yl)-1,2,3,6-tetrahydropyrimidine-4-carboxamide]",80 nM
25,"CC(CNC(=O)c1[nH]c(=O)[nH]c(=O)c1N)Oc1ccc(F)cc1 (centres unmarked) [Example 15, 5-amino-N-(2-(4-fluorophenoxy)propyl)-2,6-dioxo-1,2,3,6-tetrahydropyrimidine-4-carboxamide]",9930 nM
26,"C[C@H](COc1ccc(S(C)(=O)=O)cc1)NC(=O)c1[nH]c(=O)[nH]c(=O)c1N [Example 103, (R)-5-amino-N-(1-(4-(methylsulfonyl)phenoxy)pro-pan-2-yl)-2,6-dioxo-1,2,3,6-tetrahydropyrimidine-4-carboxamide]",559 nM
